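A five-concentration, 48-hour dose response in 96-well plates underlies each endpoint, interpolated linearly between surrounding concentrations. TGI denotes the concentration required for complete inhibition of growth.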 Where a SMILES comes first, the peptide text is derived from it. The star is where a group is joined. X36 = O=C(c1ccc(-c2ccc(Cl)cc2Cl)o1)*

By TGI is commonly meant the concentration at which net growth stops. A lower TGI goes with more potent growth arrest.

The first experiment concerns RXF 393 renal. The experiment can be described thus: DTP human tumour cell line panel, 48 h.
The molecule `Cc1ccc2c(=O)cc(-c3cccs3)[nH]c2n1` returned a TGI of over 62.6 µM.
`O=c1oc2ccccc2c(Nc2ccc3c(c2)Oc2ccccc2O3)c1[N+](=O)[O-]`: the TGI was 34.6 µM.
`CCC(C)C(NC(=O)CNC(=O)C(Cc1ccccc1)NC(=O)C1CCCN1C(=O)c1ccc(-c2ccc(Cl)cc2Cl)o1)C(=O)OC` (centres undefined) (X36-PFGI-OMe; configuration not given here): the TGI was over 100 µM.

For another experiment, the system named is OVCAR-5 ovarian. Put plainly: DTP human tumour cell line panel, 48 h.
`CCOC(=O)/C=C(\C(=O)OCC)n1cc(C)c(=O)n(Cc2cnnn2CCCCOC(C)=O)c1=O`: the TGI is 39.5 µM.
The molecule `Cc1ccc2c(=O)cc(-c3cccs3)[nH]c2n1` yielded a TGI of over 100 µM.
Molecule `O=c1oc2ccccc2c(Nc2ccc3c(c2)Oc2ccccc2O3)c1[N+](=O)[O-]` displayed a TGI of over 100 µM.
For `CCC(C)C(NC(=O)CNC(=O)C(Cc1ccccc1)NC(=O)C1CCCN1C(=O)c1ccc(-c2ccc(Cl)cc2Cl)o1)C(=O)OC` (centres undefined) (X36-PFGI-OMe; configuration not given here), the total growth inhibition concentration (TGI) was over 100 µM.

The subject of another experiment is OVCAR-3 ovarian. The experiment can be described thus: DTP human tumour cell line panel, 48 h.
On to `CCOC(=O)/C=C(\C(=O)OCC)n1cc(C)c(=O)n(Cc2cnnn2CCCCOC(C)=O)c1=O`, for which the TGI was determined as 39.1 µM.
In the case of `Cc1ccc2c(=O)cc(-c3cccs3)[nH]c2n1`, the concentration for total growth inhibition (TGI) was over 100 µM.
Still for that read-out and setting: next, `O=c1oc2ccccc2c(Nc2ccc3c(c2)Oc2ccccc2O3)c1[N+](=O)[O-]`: 64.2 µM; `CCC(C)C(NC(=O)CNC(=O)C(Cc1ccccc1)NC(=O)C1CCCN1C(=O)c1ccc(-c2ccc(Cl)cc2Cl)o1)C(=O)OC` (centres undefined) (X36-PFGI-OMe; configuration not given here): over 100 µM.

For the next experiment, the system named is BT-549 breast. Put plainly: DTP human tumour cell line panel, 48 h.
Molecule `CCOC(=O)/C=C(\C(=O)OCC)n1cc(C)c(=O)n(Cc2cnnn2CCCCOC(C)=O)c1=O` had a concentration for total growth inhibition (TGI) of 22.6 µM. This counts as double-digit micromolar.
For the molecule `Cc1ccc2c(=O)cc(-c3cccs3)[nH]c2n1`, the total growth inhibition concentration (TGI) is over 100 µM.
Consider `O=c1oc2ccccc2c(Nc2ccc3c(c2)Oc2ccccc2O3)c1[N+](=O)[O-]`, for which the TGI was 64.9 µM.
Regarding `CCC(C)C(NC(=O)CNC(=O)C(Cc1ccccc1)NC(=O)C1CCCN1C(=O)c1ccc(-c2ccc(Cl)cc2Cl)o1)C(=O)OC` (centres undefined) (X36-PFGI-OMe; configuration not given here), the TGI is over 100 µM.

The test system of a further experiment is MALME-3M melanoma. Put plainly: DTP human tumour cell line panel, 48 h.
As to `CCOC(=O)/C=C(\C(=O)OCC)n1cc(C)c(=O)n(Cc2cnnn2CCCCOC(C)=O)c1=O`, the total growth inhibition concentration (TGI) amounted to 3.79 µM.
Regarding `Cc1ccc2c(=O)cc(-c3cccs3)[nH]c2n1`, the TGI was over 100 µM.
With `O=c1oc2ccccc2c(Nc2ccc3c(c2)Oc2ccccc2O3)c1[N+](=O)[O-]`, the TGI amounted to 53.3 µM.
In turn, `CCC(C)C(NC(=O)CNC(=O)C(Cc1ccccc1)NC(=O)C1CCCN1C(=O)c1ccc(-c2ccc(Cl)cc2Cl)o1)C(=O)OC` (centres undefined) (X36-PFGI-OMe; configuration not given here) returned a TGI of over 100 µM.

In a further experiment the test system is HCT-116 colon. The experiment can be described thus: DTP human tumour cell line panel, 48 h.
Molecule `CCOC(=O)/C=C(\C(=O)OCC)n1cc(C)c(=O)n(Cc2cnnn2CCCCOC(C)=O)c1=O` came in with a TGI of 22.7 µM.
`Cc1ccc2c(=O)cc(-c3cccs3)[nH]c2n1` yielded a concentration for total growth inhibition (TGI) of over 100 µM.
In the case of `O=c1oc2ccccc2c(Nc2ccc3c(c2)Oc2ccccc2O3)c1[N+](=O)[O-]`, the concentration for total growth inhibition (TGI) is over 100 µM.
The same measure, in the same setting: next, `CCC(C)C(NC(=O)CNC(=O)C(Cc1ccccc1)NC(=O)C1CCCN1C(=O)c1ccc(-c2ccc(Cl)cc2Cl)o1)C(=O)OC` (centres undefined) (X36-PFGI-OMe; configuration not given here): over 100 µM.

The subject of another experiment is HCT-15 colon. Put plainly: DTP human tumour cell line panel, 48 h.
As for `CCOC(=O)/C=C(\C(=O)OCC)n1cc(C)c(=O)n(Cc2cnnn2CCCCOC(C)=O)c1=O`, the TGI was over 25.2 µM.
Molecule `Cc1ccc2c(=O)cc(-c3cccs3)[nH]c2n1` displayed a TGI of over 100 µM.
Molecule `O=c1oc2ccccc2c(Nc2ccc3c(c2)Oc2ccccc2O3)c1[N+](=O)[O-]` registered a TGI of over 100 µM.
Same read-out and setting: the figure for `CCC(C)C(NC(=O)CNC(=O)C(Cc1ccccc1)NC(=O)C1CCCN1C(=O)c1ccc(-c2ccc(Cl)cc2Cl)o1)C(=O)OC` (centres undefined) (X36-PFGI-OMe; configuration not given here) is over 100 µM.

A further experiment deals with SK-MEL-5 melanoma. Put plainly: DTP human tumour cell line panel, 48 h.
`CCOC(=O)/C=C(\C(=O)OCC)n1cc(C)c(=O)n(Cc2cnnn2CCCCOC(C)=O)c1=O` showed a total growth inhibition concentration (TGI) of over 52.2 µM.
On the same count and under the same terms, the figure for `Cc1ccc2c(=O)cc(-c3cccs3)[nH]c2n1` is over 81.9 µM; for `O=c1oc2ccccc2c(Nc2ccc3c(c2)Oc2ccccc2O3)c1[N+](=O)[O-]` it is 45.3 µM; for `CCC(C)C(NC(=O)CNC(=O)C(Cc1ccccc1)NC(=O)C1CCCN1C(=O)c1ccc(-c2ccc(Cl)cc2Cl)o1)C(=O)OC` (centres undefined) (X36-PFGI-OMe; configuration not given here) it is 45.6 µM.

Another experiment relates to SW-620 colon. Put plainly: DTP human tumour cell line panel, 48 h.
In turn, `CCOC(=O)/C=C(\C(=O)OCC)n1cc(C)c(=O)n(Cc2cnnn2CCCCOC(C)=O)c1=O` returned a concentration for total growth inhibition (TGI) of over 38.4 µM.
`Cc1ccc2c(=O)cc(-c3cccs3)[nH]c2n1` showed a TGI of over 30.1 µM.
The molecule `O=c1oc2ccccc2c(Nc2ccc3c(c2)Oc2ccccc2O3)c1[N+](=O)[O-]` yielded a TGI of 74.9 µM.
With `CCC(C)C(NC(=O)CNC(=O)C(Cc1ccccc1)NC(=O)C1CCCN1C(=O)c1ccc(-c2ccc(Cl)cc2Cl)o1)C(=O)OC` (centres undefined) (X36-PFGI-OMe; configuration not given here), the total growth inhibition concentration (TGI) is over 100 µM.

For another experiment, the system named is RPMI-8226 leukemia. The experiment can be described thus: DTP human tumour cell line panel, 48 h.
Take `CCOC(=O)/C=C(\C(=O)OCC)n1cc(C)c(=O)n(Cc2cnnn2CCCCOC(C)=O)c1=O`: the TGI is over 26.7 µM.
Still for that read-out and setting: the figure for `Cc1ccc2c(=O)cc(-c3cccs3)[nH]c2n1` is over 49.4 µM; for `O=c1oc2ccccc2c(Nc2ccc3c(c2)Oc2ccccc2O3)c1[N+](=O)[O-]` it is over 100 µM.
The molecule `CCC(C)C(NC(=O)CNC(=O)C(Cc1ccccc1)NC(=O)C1CCCN1C(=O)c1ccc(-c2ccc(Cl)cc2Cl)o1)C(=O)OC` (centres undefined) (X36-PFGI-OMe; configuration not given here) returned a concentration for total growth inhibition (TGI) of over 100 µM.

The next experiment deals with 786-0 renal. Put plainly: DTP human tumour cell line panel, 48 h.
Regarding `CCOC(=O)/C=C(\C(=O)OCC)n1cc(C)c(=O)n(Cc2cnnn2CCCCOC(C)=O)c1=O`, the total growth inhibition concentration (TGI) stood at 28 µM.
With `Cc1ccc2c(=O)cc(-c3cccs3)[nH]c2n1`, the TGI is over 100 µM.
With `O=c1oc2ccccc2c(Nc2ccc3c(c2)Oc2ccccc2O3)c1[N+](=O)[O-]`, the TGI was determined as 38.8 µM. This counts as double-digit micromolar.
`CCC(C)C(NC(=O)CNC(=O)C(Cc1ccccc1)NC(=O)C1CCCN1C(=O)c1ccc(-c2ccc(Cl)cc2Cl)o1)C(=O)OC` (centres undefined) (X36-PFGI-OMe; configuration not given here) registered a TGI of over 100 µM.

The test system of a further experiment is COLO 205 colon. Put plainly: DTP human tumour cell line panel, 48 h.
Molecule `Cc1ccc2c(=O)cc(-c3cccs3)[nH]c2n1` yielded a TGI of 25.2 µM.
Regarding `O=c1oc2ccccc2c(Nc2ccc3c(c2)Oc2ccccc2O3)c1[N+](=O)[O-]`, the concentration for total growth inhibition (TGI) is over 100 µM.
Same read-out and setting: next, `CCC(C)C(NC(=O)CNC(=O)C(Cc1ccccc1)NC(=O)C1CCCN1C(=O)c1ccc(-c2ccc(Cl)cc2Cl)o1)C(=O)OC` (centres undefined) (X36-PFGI-OMe; configuration not given here): over 100 µM.

The next experiment concerns SF-268 CNS. Put plainly: DTP human tumour cell line panel, 48 h.
Turning to `CCOC(=O)/C=C(\C(=O)OCC)n1cc(C)c(=O)n(Cc2cnnn2CCCCOC(C)=O)c1=O`, the TGI worked out at 54.1 µM.
`Cc1ccc2c(=O)cc(-c3cccs3)[nH]c2n1`: the TGI was over 100 µM.
In turn, `O=c1oc2ccccc2c(Nc2ccc3c(c2)Oc2ccccc2O3)c1[N+](=O)[O-]` gave a TGI of 48.4 µM. In other words, the double-digit micromolar range.
On the same count and under the same terms, next, `CCC(C)C(NC(=O)CNC(=O)C(Cc1ccccc1)NC(=O)C1CCCN1C(=O)c1ccc(-c2ccc(Cl)cc2Cl)o1)C(=O)OC` (centres undefined) (X36-PFGI-OMe; configuration not given here): over 100 µM.

In another experiment the test system is MCF7 breast. The experiment can be described thus: DTP human tumour cell line panel, 48 h.
Molecule `CCOC(=O)/C=C(\C(=O)OCC)n1cc(C)c(=O)n(Cc2cnnn2CCCCOC(C)=O)c1=O` registered a total growth inhibition concentration (TGI) of 21.5 µM.
Consider `Cc1ccc2c(=O)cc(-c3cccs3)[nH]c2n1`, for which the concentration for total growth inhibition (TGI) was over 100 µM.
On to `O=c1oc2ccccc2c(Nc2ccc3c(c2)Oc2ccccc2O3)c1[N+](=O)[O-]`, for which the TGI came to 47.7 µM.
Consider `CCC(C)C(NC(=O)CNC(=O)C(Cc1ccccc1)NC(=O)C1CCCN1C(=O)c1ccc(-c2ccc(Cl)cc2Cl)o1)C(=O)OC` (centres undefined) (X36-PFGI-OMe; configuration not given here), for which the total growth inhibition concentration (TGI) was over 100 µM.

A further experiment concerns A498 renal. The experiment can be described thus: DTP human tumour cell line panel, 48 h.
As for `CCOC(=O)/C=C(\C(=O)OCC)n1cc(C)c(=O)n(Cc2cnnn2CCCCOC(C)=O)c1=O`, the total growth inhibition concentration (TGI) turned out to be 37.5 µM.
`Cc1ccc2c(=O)cc(-c3cccs3)[nH]c2n1` displayed a TGI of over 100 µM.
Turning to `O=c1oc2ccccc2c(Nc2ccc3c(c2)Oc2ccccc2O3)c1[N+](=O)[O-]`, the TGI was 59 µM.
On the same count and under the same terms, the figure for `CCC(C)C(NC(=O)CNC(=O)C(Cc1ccccc1)NC(=O)C1CCCN1C(=O)c1ccc(-c2ccc(Cl)cc2Cl)o1)C(=O)OC` (centres undefined) (X36-PFGI-OMe; configuration not given here) is 54.4 µM.

The test system of the next experiment is UACC-62 melanoma. Put plainly: DTP human tumour cell line panel, 48 h.
Turning to `CCOC(=O)/C=C(\C(=O)OCC)n1cc(C)c(=O)n(Cc2cnnn2CCCCOC(C)=O)c1=O`, the TGI amounted to 31.7 µM. In other words, the double-digit micromolar range.

These data come from PubChem BioAssay (NCI).
